Experimental findings from BindingDB's records for doi:10.7270/Q2TX3CTT (Broad Institute, 2010) are described below.

Where a name gives a salt, the structure may show the parent alone. Some results are limits rather than exact numbers.

The target in this assay is Glycogen synthase kinase-3 beta (Homo sapiens, UniProt P49841). In words: GSK3beta kinase inhibitor potency, dose response, biochemical, luminescence, cell-free homogeneous, retest (AID 434954).
Chain of Glycogen synthase kinase-3 beta (P49841 whole entry): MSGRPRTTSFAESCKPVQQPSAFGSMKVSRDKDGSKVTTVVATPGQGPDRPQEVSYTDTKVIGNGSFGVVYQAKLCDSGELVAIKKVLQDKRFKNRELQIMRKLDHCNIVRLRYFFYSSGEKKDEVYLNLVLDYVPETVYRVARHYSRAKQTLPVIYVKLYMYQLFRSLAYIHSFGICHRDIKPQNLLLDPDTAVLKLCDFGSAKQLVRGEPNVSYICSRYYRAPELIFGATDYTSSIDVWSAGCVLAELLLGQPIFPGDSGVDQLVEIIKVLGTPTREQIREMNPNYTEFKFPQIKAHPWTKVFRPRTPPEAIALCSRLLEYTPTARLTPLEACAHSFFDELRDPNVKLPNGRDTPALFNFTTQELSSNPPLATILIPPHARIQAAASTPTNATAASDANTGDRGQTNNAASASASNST
For `COC(=O)c1ccc(CSc2nnc(-c3ccncc3)o2)o1` [methyl 5-({[5-(4-pyridinyl)-1,3,4-oxadiazol-2-yl]thio}methyl)-2-furoate], the EC50 (commonly the concentration at which the effect is half-maximal) was determined as 12.5 µM.
Take `CC(=O)c1coc2ccc(OCC(=O)O)cc12` [2-[(3-acetyl-5-benzofuranyl)oxy]acetic acid]: it took 56.6 µM to reach a half-maximal effect (EC50).
Then `COc1ccccc1C(=O)Oc1ccc(C(C)(C)C)cc1`, with above 300 µM; and `COc1ccc(-c2nnc3ccc(SCc4ccccc4)nn23)cc1` [3-(4-methoxyphenyl)-6-(phenylmethylsulfanyl)-[1,2,4]triazolo[4,3-b]pyridazine], with 31.7 µM; and `O=C(CSc1nnc(-c2ccco2)n1Cc1ccco1)N1CCOCC1` [2-(5-Furan-2-yl-4-furan-2-ylmethyl-4H-[1,2,4]triazol-3-ylsulfanyl)-1-morpholin-4-yl-ethanone], with above 300 µM.
`CCN(CC)Cc1c(C(=O)NN=Cc2ccc(C)o2)nnn1-c1nonc1N` [1-(4-amino-1,2,5-oxadiazol-3-yl)-5-(diethylaminomethyl)-N-[(5-methylfuran-2-yl)methylideneamino]triazole-4-carboxamide]: the EC50 came out at 23 µM.
`CC(C)Nc1nc(N=C(N)S)nc(NC(C)C)n1` gave a concentration for a half-maximal effect (EC50) above 300 µM.
The value for `O=c1cc(-c2ccccc2Cl)oc2c(NS(=O)(=O)c3cccs3)ccc(O)c12` [MLS000518499] was above 300 µM; that for `COCCn1c(SCC(=O)Nc2ccc(S(=O)(=O)N(C)C)cc2)nc2ccccc21` [MLS000567111] was above 300 µM.
The compound `CC(C)(C)NC1=NN=C(c2ccc(Cl)cc2)CS1` [N-tert-butyl-5-(4-chlorophenyl)-6H-1,3,4-thiadiazin-2-amine] had an EC50 above 300 µM.
`NC(=O)c1cccc2c1C(=O)N(C1CCCCC1)C2` [2-cyclohexyl-3-oxoisoindoline-4-carboxamide] came in with an EC50 above 300 µM.
Then `Cc1cc(=O)[nH]c(N=NCc2ccc(-c3ccc([N+](=O)[O-])cc3)o2)n1` [SMR000589712], with above 300 µM; and `CC1(C)CC(=O)C2C(=Nc3ccccc3NC2c2cccs2)C1` (stereo unspecified) [9,9-dimethyl-6-thiophen-2-yl-6,8,10,11-tetrahydro-5H-benzo[b][1,4]benzodiazepin-7-one], with above 300 µM; and `O=C(NCC(c1ccco1)N1CCOCC1)c1cccc(Cl)c1` (stereo unspecified) [SMR000808258], with above 300 µM.
In turn, `Cc1ccc2c(c1)N(C(=O)CCC(=O)NCc1ccccc1)CC(C)O2` (stereo unspecified) returned an EC50 above 300 µM.
Then `Fc1ccccc1CN=Nc1ncnc2nc[nH]c12`, with 11.2 µM; and `CCCCc1cc(=O)oc2cc(O)cc(O)c12` [4-butyl-5,7-dihydroxy-2H-chromen-2-one], with 15.2 µM; and `Cc1ccc2c(c1)Oc1ccc([N+](=O)[O-])cc1C(=O)N2` [7-methyl-2-nitrodibenzo[b,f][1,4]oxazepin-11(10H)-one], with above 300 µM.
Compound `CC(=O)CSc1nc(-c2cccs2)c(C#N)c(=O)[nH]1` [4-oxidanylidene-2-(2-oxidanylidenepropylsulfanyl)-6-thiophen-2-yl-1H-pyrimidine-5-carbonitrile] displayed a concentration for a half-maximal effect (EC50) above 300 µM.
As to `Cn1ncc(Br)c1C(=O)Nc1cccc(C(F)(F)F)c1` [MLS000711234], the EC50 was above 300 µM.
Then `Cc1nc(Nc2ccccc2)sc1C` [4,5-dimethyl-N-phenyl-1,3-thiazol-2-amine], with above 300 µM.
Then `Oc1ccc(CN=Nc2ncnc3nc[nH]c23)cc1` [SMR000320358], with above 300 µM; and `Cc1cc2nc(-c3cccnc3O)[nH]c2cc1C`, with 8.16 µM; and `CCOC(=O)C1C(C)=Nc2ncnn2C1c1c[nH]c2ccccc12` (stereo unspecified) [MLS000089006], with 4.64 µM.
`O=C(Nc1ccc2c(c1)OCO2)Nc1ccc(F)cc1F` gave an EC50 above 300 µM.
Then `O=C(CCCC1=Nc2ccccc2S(=O)(=O)N1)Nc1ccccc1` [MLS001028511], with above 300 µM; and `CC(C)(C)NC(=O)NC(=O)COc1ccc(Br)cc1Br` [SMR000254856], with above 300 µM; and `O=C(O)c1ccc2c3n(nc2c1)-c1ccc(Cl)cc1CO3` [SMR000673552], with 55.5 µM.
Consider `O=C(c1cccnc1)C1CCCN(Cc2nc(Cc3ccccc3)no2)C1` (stereo unspecified) [[1-[[3-(phenylmethyl)-1,2,4-oxadiazol-5-yl]methyl]-3-piperidinyl]-(3-pyridinyl)methanone], for which the EC50 was above 300 µM.
The value for `O=C1N=C(N2CCc3ccccc3C2)S/C1=C\c1ccc(O)cc1` [MLS001043290] was above 300 µM.
Then `CCOc1ccccc1C=NNC(=O)c1nnn(-c2nonc2N)c1CN1CCC(C)CC1` [SMR000620330], with above 300 µM.
For the compound `Cc1c(C(=O)O)sc2c1c(=O)n(Cc1ccccc1)c(=O)n2C` [1,5-dimethyl-2,4-dioxo-3-(phenylmethyl)-6-thieno[2,3-d]pyrimidinecarboxylic acid], the EC50 is above 300 µM.
Turning to `Cc1ccnc(NC(=O)C2CC(=O)N(c3ccc4c(c3)OCCO4)C2)c1` (stereo unspecified) [SMR000709078], the EC50 was 25.6 µM.
Then `CC(=NNC(=O)c1nnn(-c2nonc2N)c1CN1CCc2ccccc21)c1ccccc1O` [MLS001076839], with above 300 µM; and `Cc1nn(-c2ccccc2)cc1CN=O`, with 71.2 µM.
With `CCOC(=O)CCNCC1COc2ccccc2O1` (stereo unspecified) [ethyl 3-(2,3-dihydro-1,4-benzodioxin-3-ylmethylamino)propanoate;hydrochloride], the half-maximal effective concentration (EC50) is above 300 µM.
Then `CC(N=O)c1ncc(C(F)(F)F)cc1Cl` (stereo unspecified) [MLS000763457], with above 300 µM; and `COC(=O)c1cc(S(=O)(=O)N2CCCC(C)C2)c[nH]1` (stereo unspecified), with above 300 µM.
The value for `COC(=O)c1nnn(-c2nonc2N)c1CSc1ccc(Cl)cc1` was 15.9 µM; that for `COc1ccccc1N1CCN(CCCNC(=O)C2CCCN(c3ncnc4c3nc3n4CCCCC3)C2)CC1` (stereo unspecified) [N-[3-[4-(2-methoxyphenyl)piperazin-1-yl]propyl]-1-(7,8,9,10-tetrahydro-6H-purino[9,8-a]azepin-4-yl)piperidine-3-carboxamide] was 156 µM; that for `O=C(CCc1nnc(CCCCc2ccccc2)o1)NCc1cccc(F)c1` [N-(3-fluorobenzyl)-3-[5-(4-phenylbutyl)-1,3,4-oxadiazol-2-yl]propanamide] was above 300 µM.
In turn, `CCCC1=Nc2ncnn2C(c2cccs2)C1C(=O)OCC` (stereo unspecified) [5-propyl-7-thiophen-2-yl-1,7-dihydro-[1,2,4]triazolo[1,5-a]pyrimidine-6-carboxylic acid ethyl ester] had an EC50 of 23.2 µM.
Turning to `COC(=O)c1nnn(-c2nonc2N)c1CN1CCCC1` [MLS001202105], the EC50 is above 300 µM.
As for `CCc1ccc(C2CC(c3ccc(C)cc3)Nc3nc(N)nn32)cc1` (stereo unspecified), the EC50 is above 300 µM.
In turn, `COc1ccc2c(c1)=C(NN1C(=O)c3ccccc3C1=O)C(=O)N=2` [2-[(5-methoxy-2-oxidanylidene-indol-3-yl)amino]isoindole-1,3-dione] displayed an EC50 above 300 µM.
The value for `CC1=C(C(=O)Nc2ccccc2F)C(c2ccsc2)C2C(=O)CC(C)(C)CC2=N1` (stereo unspecified) [N-(2-fluorophenyl)-2,7,7-trimethyl-5-oxo-4-(3-thiophenyl)-1,4,6,8-tetrahydroquinoline-3-carboxamide] was above 300 µM; that for `CCOc1ccc2ncc(C(=O)c3ccc(OC)cc3)c(N3CCN(CC)CC3)c2c1` [[6-ethoxy-4-(4-ethylpiperazin-1-yl)quinolin-3-yl](4-methoxyphenyl)methanone] was above 300 µM; that for `Cc1ccc(S(=O)(=O)N(C)C)cc1NC(=O)c1ccc(OC(F)(F)F)cc1` [SMR000247294] was above 300 µM.
The compound `CCn1nc(NC(=O)Cc2ccc(OC)cc2)c2cc3cc(C)ccc3nc21` registered an EC50 above 300 µM.
Compound `CC(C)(C)C1CCc2onc(C(=O)Nc3ccc4c(c3)OCO4)c2C1` (stereo unspecified) [N-(1,3-benzodioxol-5-yl)-5-tert-butyl-4,5,6,7-tetrahydro-1,2-benzoxazole-3-carboxamide] yielded an EC50 above 300 µM.
For the compound `O=C1/C(=C/C=C/c2ccccc2)Oc2c1ccc(O)c2CN1CCN(CCO)CC1` [SMR000415785], the EC50 is above 300 µM.
